# Data published in publication PMC4357167 (Cancer cell, 2015).
# Assays:
# SMO W281C = SMO W281C (Homo sapiens, UniProt Q99835, W281C); experiment: Hedgehog signaling assay; assay type: cell-based; settings: 100 nM vismodegib and SHH-N ligand
# [1] = system: SMO-LBP and SMO-CA variants; experiment: HH pathway activity; settings: […] nM vismodegib (4-fold greater than IC50), SHH-N CM
# SMO D473G = SMO D473G (Homo sapiens, UniProt Q99835, D473G); experiment: Hedgehog signaling assay; assay type: cell-based; settings: 100 nM vismodegib and SHH-N ligand
# Sequence of SMO D473G (Q99835 28-787 D473G): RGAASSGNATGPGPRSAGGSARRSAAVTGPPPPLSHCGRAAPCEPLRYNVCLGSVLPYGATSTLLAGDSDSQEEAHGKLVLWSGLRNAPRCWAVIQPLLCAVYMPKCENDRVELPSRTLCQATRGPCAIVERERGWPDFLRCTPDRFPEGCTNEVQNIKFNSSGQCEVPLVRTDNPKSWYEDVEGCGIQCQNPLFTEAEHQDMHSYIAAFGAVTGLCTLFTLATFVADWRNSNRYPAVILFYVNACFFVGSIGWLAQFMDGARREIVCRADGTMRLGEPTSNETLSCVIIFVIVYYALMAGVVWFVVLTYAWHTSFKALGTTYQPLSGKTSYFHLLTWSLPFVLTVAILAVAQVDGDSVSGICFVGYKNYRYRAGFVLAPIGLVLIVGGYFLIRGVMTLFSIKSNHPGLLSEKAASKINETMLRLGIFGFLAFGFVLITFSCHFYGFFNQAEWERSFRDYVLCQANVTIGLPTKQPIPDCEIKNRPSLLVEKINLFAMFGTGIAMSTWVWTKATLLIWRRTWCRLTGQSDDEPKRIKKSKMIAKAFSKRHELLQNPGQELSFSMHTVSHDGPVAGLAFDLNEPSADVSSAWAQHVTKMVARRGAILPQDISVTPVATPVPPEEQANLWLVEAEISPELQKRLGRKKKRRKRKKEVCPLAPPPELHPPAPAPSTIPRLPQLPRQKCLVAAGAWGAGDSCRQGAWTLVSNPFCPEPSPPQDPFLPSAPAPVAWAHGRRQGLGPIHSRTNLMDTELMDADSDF
# SMO V386A = SMO V386A (Homo sapiens, UniProt Q99835, V386A); experiment: Hedgehog signaling assay; assay type: cell-based; settings: 100 nM vismodegib and SHH-N ligand
# Sequence of SMO V386A (Q99835 28-787 V386A): as the sequence (Q99835 28-787 D473G) above, with V359A, G446D counted along it
# SMO V321M = SMO V321M (Homo sapiens, UniProt Q99835, V321M); experiment: Hedgehog signaling assay; assay type: cell-based; settings: SHH-N CM, 100 nM vismodegib
# Sequence of SMO V321M (Q99835 28-787 V321M): as the sequence (Q99835 28-787 D473G) above, with V294M, G446D counted along it
# SMO F460L = SMO F460L (Homo sapiens, UniProt Q99835, F460L); experiment: Hedgehog signaling assay; assay type: cell-based; settings: SHH-N CM, 100 nM vismodegib
# Sequence of SMO F460L (Q99835 28-787 F460L): as the sequence (Q99835 28-787 D473G) above, with F433L, G446D counted along it
# SMO Q635E = SMO Q635E (Homo sapiens, UniProt Q99835, Q635E); settings: SHH-N CM, 10, 20 or 80 nM vismodegib
# Sequence of SMO Q635E (Q99835 28-787 Q635E): as the sequence (Q99835 28-787 D473G) above, with G446D, Q608E counted along it
# [2] = system: advanced and metastatic BCCs; settings: 2012, cited from earlier work
# SMO Q477E = SMO Q477E (Homo sapiens, UniProt Q99835, Q477E); experiment: Hedgehog signaling assay; assay type: cell-based; settings: 100 nM vismodegib and SHH-N ligand
# Sequence of SMO Q477E (Q99835 28-787 Q477E): as the sequence (Q99835 28-787 D473G) above, with G446D, Q450E counted along it
# SMO L412F = SMO L412F (Homo sapiens, UniProt Q99835, L412F); experiment: Hedgehog signaling assay; assay type: cell-based; settings: SHH-N CM, 100 nM vismodegib
# Sequence of SMO L412F (Q99835 28-787 L412F): as the sequence (Q99835 28-787 D473G) above, with L385F, G446D counted along it
# SMO H231R = SMO H231R (Homo sapiens, UniProt Q99835, H231R); experiment: Hedgehog signaling assay; assay type: cell-based; settings: 100 nM vismodegib and SHH-N ligand
# Sequence of SMO H231R (Q99835 28-787 H231R): as the sequence (Q99835 28-787 D473G) above, with H204R, G446D counted along it
# [3] = system: syndromic BCCs in patients with Basal Cell Nevus Syndrome; settings: Gorlin, inherited PTCH1 loss; ref Tang et al., 2012; cited from earlier work
# Sequence of SMO W281C (Q99835 28-787 W281C): as the sequence (Q99835 28-787 D473G) above, with W254C, G446D counted along it
smiles,measurement,setting,value
CS(=O)(=O)c1ccc(C(=O)Nc2ccc(Cl)c(-c3ccccn3)c2)c(Cl)c1 [vismodegib],HH activity (Gli1 mRNA) in the presence of drug,SMO W281C,retained high levels of HH activity
same,HH pathway activity (Gli1 mRNA) in the presence of SMO variants,[1],partial or complete resistance
same,HH activity (Gli1 mRNA) in the presence of drug,SMO D473G,retained high levels of HH activity
same,HH activity (Gli1 mRNA) in the presence of drug,SMO V386A,response similar to SMO WT
same,"HH pathway activity, responsiveness to drug",SMO V321M,partially or completely unresponsive
same,"HH pathway activity, responsiveness to drug",SMO F460L,partially or completely unresponsive
same,"HH pathway activity, resistance at low drug concentrations",SMO Q635E,resistance at low but not high vismodegib concentrations
same,patients developing resistance during the first year,"[2]; additional to non-responders, ref Chang and Oro",20%
same,overall response rate,"[2]; advanced and metastatic BCCs, ref Axelson et al., 2013, Sekulic et al.",48%
same,HH activity (Gli1 mRNA) in the presence of drug,SMO Q477E,retained high levels of HH activity
same,"HH pathway activity, responsiveness to drug",SMO L412F,partially or completely unresponsive
same,HH activity (Gli1 mRNA) in the presence of drug,SMO H231R,retained high levels of HH activity
same,clinical response,[3],respond to vismodegib and have a low rate of acquired resistance
